Where only a bound is given, the exact number is not on record here.

For assay [1], the target named is Tyrosine-protein kinase SYK (Homo sapiens) (UniProt P43405). The experiment in a line: Inhibition of SYK.
For assay [2], the target named is 3-phosphoinositide-dependent protein kinase 1 (Homo sapiens) (UniProt O15530). The assay is described as follows: Inhibition of PDK1.

Regarding `CC(C)c1n[nH]c(Cl)c1-c1ccnc(Nc2ccc(N3CCC(N(C)C)CC3)cn2)n1` [4-(5-Chloro-3-isopropyl-1H-pyrazol-4-yl)-N-(5-(4-(dimethylamino)piperidin-1-yl)pyridin-2-yl)pyrimidin-2-amine], the IC50 in assay [1] and in assay [2] was over 10 µM in each case.
On to `CC(C)c1[nH]nc(C(F)(F)F)c1-c1ccnc(Nc2ccc(N3CCC(N(C)C)CC3)cn2)n1` [N*6'*-[4-(5-Isopropyl-3-trifluoromethyl-1H-pyrazol-4-yl)-pyrimidin-2-yl]-N*4*,N*4*-dimethyl-3,4,5,6-tetrahydro-2H-[1,3']-bipyridinyl-4,6'-diamine], for which the IC50 in assay [1] and in assay [2] was over 10 µM throughout.

The values are drawn from BindingDB's records for doi:10.1021/jm100571n (Novartis Institutes For Biomedical Research, 2010).
